The values that follow come from patent publication US20240150387A1, “GLUCOCEREBROSIDE COMPOUND, PHARMACEUTICAL COMPOSITION THEREOF AND USE THEREOF” (DONGGUAN HEC CORDYCEPS R&D CO., LTD., priority 2021, published 2024).

SMILES strings stand for the structures.

Data set [1] relates to spleen lymphocytes induced by Con A. In words: Detection of cell proliferation inhibition: Con A-induced spleen lymphocyte proliferation (CCK-8). The data set is classed as cell-based. Particulars: Mus musculus; for inhibition at 2 µM: concentration 2 μM; for inhibition at 2 µM / inhibition at 4 µM / inhibition at 8 µM / inhibition at 16 µM / inhibition at 32 µM / inhibition at 64 µM: read-out: Inhibitory rate (%) on the proliferation of spleen lymphocytes induced by Con A; for inhibition at 4 µM: concentration 4 μM; for inhibition at 8 µM: concentration 8 μM; for inhibition at 16 µM: concentration 16 μM; for inhibition at 32 µM: concentration 32 μM; for inhibition at 64 µM: concentration 64 μM; for IC50: linear fit of inhibition rate against log concentration, ConA final 7.5 μg/mL, 48 h. The protocol: (§1) 3.2.1 Cell acquisition: BABL/C male mice ere sacrificed after eyeball extraction and bloodletting, soaked in 75% ethanol for 10 mint, and the spleen was aseptically removed in an ultra-clean workbench, and placed in a petri dish filled with PBS. A syringe was used to absorb PBS to rinse the surface and interior of the spleen until the spleen turned white, then the spleen was gently torn up with tweezers. The spleen was gently crushed with a 5 mL syringe on the steel mesh to make a single-cell suspension, which was filtered through a 200-mesh sieve. The filtrate was centrifuged for 10 min (1000 rpm/min); after centrifugation, the supertnatant was discarded. After the cell pellet was resuspended with PBS, the mixture was centrifuged again for 10 min (1000 rpm/min), and the operation was repeated once; 2 mL of erythrocyte lysate was added to the cell pellet. After the mixture was mixed evenly and allowed to stand for 5 min, 8 mL of PBS was added to nx evenly, and then the mixture was centrifuged at 1000 rpm min for 5 min. After centrifugation, the supernatant was discarded, the cell pellet was resuspended with PBS, then the mixture was centrifuged again for 10 min (1000 rpm/min), and the operation was repeated once; after centrifugation, the supematant ias discarded, the cell pellet was suspended in 1 mL of RPMI-1640 complete medium (containing 10% fetal bovine serum and 1% double antibody). 2-3 mL medium was added to dilute. A cell counter was used for cell counting (new cell type), and complete medium was used to adjust the cell concentration to 2*10^6 cells/mL.
(§2) 3.2.2 Stunple preparation: appropriate amount of compounds 1, 2, 3, and 4 were dissolved in DMSO respectively to prepare 64 mM mother solution, and then diluted with medium to obtain solutions with a concentration of 128 μM respectively, and then gradiently diluted with medium to obtain sample dilutions with concentrations of 64 μM, 32 μM, 16 μM, 8 μM, and 4 μM, respectively.
3.2.4 Detection of cell proliferation inhibition: the prepared cell suspension was added to the 96-well plate. The seeding cell density was 2*10^5 cells/well, and the added cell volume was 100 μL. Samples were added at 100 μL, with 5 replicate wells for each concentration, and then incubated in a 37° C., 5% CO2 incubator for 12 h. 10 μL of the supernatant were carefully suck out. 10 μL ConA with a concentration of 150 μg/mL (final concentration: 7.5 μg/mL) was added to the corresponding group, and then the mixture was incubated in a 37° C., 5% CO2 incubator for 48 h, and finally incubated in a 37° C. incubator for 4-5 hours with serum-free medium and 10% CCK-8. The absorbance (A) value of each well was detected at 450 nm by a microplate reader. A negative control group and a model control group were set up, which were cells+1640 medium, cells+ConA+1640 medium, respectively.
The proliferation inhibition rate of the sample to spleen lymphocytes was calculated according to the following formula:
Proliferation inhibition rate %=[(Am−As)/(Am−Ac)]×100% • Am: Absorbance of model control group (spleen lymphocytes+ConA+CCK-8) • As: Absorbance of sample group (spleen lymphocytes+samples to be tested+ConA+CCK-8) • Ac: Absorbance of negative control group (spleen lymphocytes+CCK-8)
The experimental results of compounds 1. 2, 3.

The subject of the next data set is spleen lymphocytes. In words: Detection of cell viability (CCK-8) of spleen lymphocytes. The class given is cell-based, mouse. Conditions: 64, 32, 16, 8, 4, and 2 μM; 60 h incubation; compared with the control group. The protocol:
as §1, §2
3.2.3 Detection of cell viability: the prepared cell suspension was added to a 96-well plate. The seeding cell density was 2*10^5 cells/well, and the added cell volume was 100 μL. Compounds 1, 2, 3, and 4 were added at 100 μL/well, with 5 replicate wells for each concentration, and then incubated in a 37° C. 5% CO2 incubator for 60 h, and then incubated in a 37° C. incubator for 4-5 hours with serum-free medium and 10% CCK-8. The absorbance (A) value of each well was detected at 450 nm by a inicroplate reader. […]
3.2.5 Data processing: the proliferation rate (viability) of the sample to spleen hymphocytes was calculated according to the following formula:
Proliferation rate %=[As/Ac]×100% • As: Absorbance of sample group (spleen lymphocytes+samples to be tested+CCK-8) • Ac: Absorbance of control group (spleen lymphocytes+CCK-8)

The IC50 is the concentration that inhibits the measured activity by half. Read a high IC50 as weaker potency in that assay. `CCCCCCCCC/C=C/CC/C=C/[C@@H](O)[C@H](CO[C@@H]1O[C@H](CO)[C@@H](O)[C@H](O)[C@H]1O)NC(=O)[C@H](O)/C=C/CCCCCCCCCCCC` [Compound 3]: in data set [1], the inhibition at 2 µM is 4.5%, the inhibition at 4 µM came to 30.9%, the inhibition at 8 µM came to 37.4% and the inhibition at 16 µM amounted to 52%. For the same compound, in data set [1], the inhibition at 32 µM was determined as 84.2%, the inhibition at 64 µM was 123% and the IC50 amounted to 19.5 µM. In addition, the “cytotoxic effect on spleen lymphocytes” value in the data set with spleen lymphocytes was “no cytotoxic effect”.

As for `CCCCCCCCCCC/C=C/[C@@H](O)C(=O)N[C@@H](CO[C@@H]1O[C@H](CO)[C@@H](O)[C@H](O)[C@H]1O)[C@H](O)/C=C/CC/C=C(\C)CCCCCCCCC` [Compound 2], in data set [1], the inhibition at 2 µM worked out at 43.7%, the inhibition at 4 µM came to 54.3%, the inhibition at 8 µM was 77.7% and the inhibition at 16 µM came out at 100%. Besides, in data set [1], the inhibition at 32 µM amounted to 126%, the inhibition at 64 µM is 140% and half-maximal inhibition (IC50) required 10.4 µM. In addition, the “cytotoxic effect on spleen lymphocytes” value with spleen lymphocytes was “no cytotoxic effect”.

For the compound `CCCCCCCCCCCCC/C=C/[C@@H](O)C(=O)N[C@@H](CO[C@@H]1O[C@H](CO)[C@@H](O)[C@H](O)[C@H]1O)[C@H](O)/C=C/CC/C=C(\C)CCCCCCCCC` [Compound 1], in data set [1], the inhibition at 2 µM amounted to 130%, the inhibition at 4 µM came to 136%, the inhibition at 8 µM is 146% and the inhibition at 16 µM came to 150%. For the same compound, in data set [1], the inhibition at 32 µM was 148%, the inhibition at 64 µM was 152% and the IC50 worked out at 4 µM. For the same compound, the “cytotoxic effect on spleen lymphocytes” value in the data set on spleen lymphocytes was “no cytotoxic effect”.

On to `CCCCCCCCCCCCCCCC(=O)N[C@@H](CO[C@@H]1O[C@H](CO)[C@@H](O)[C@H](O)[C@H]1O)[C@H](O)/C=C/CC/C=C(\C)CCCCCCCCC` [Compound 4], for which, in data set [1], the inhibition at 2 µM turned out to be 72.2%, the inhibition at 4 µM came to 70.7%, the inhibition at 8 µM was found to be 100% and the inhibition at 16 µM amounted to 102%. Further, in data set [1], the inhibition at 32 µM was found to be 120%, the inhibition at 64 µM stood at 120% and the IC50 came out at 1.5 µM. Further, in the data set with spleen lymphocytes, the “cytotoxic effect on spleen lymphocytes” value is on record as “no cytotoxic effect”.
